Source: patent US9668481B2, “Triazole derivatives” (priority 2013, dated 2017)
Read-outs that look alike come from different tables or passages of the source. Marks after values point to notes of the source that are not given here.

What was measured:
[1] = system: Botrytis cinerea; assay: In vivo preventive test on Botrytis cinerea (grey mould); conditions: gherkin plants, preventive spray, evaluated 4 to 5 days after inoculation
Method: The young plants of gherkin are treated by spraying the active ingredient prepared as described above. Control plants are treated only with an aqueous solution of acetone/Dimethyl sulfoxide/Tween®. After 24 hours, the plants are contaminated by spraying the leaves with an aqueous suspension of Botrytis cinerea spores. The contaminated gherkin plants are incubated for 4 to 5 days at 17° C. and at 90% relative humidity.

[2] = system: Puccinia recondita; assay: In vivo preventive test on Puccinia recondita (brown rust on wheat); conditions: wheat plants, preventive spray, evaluated 11 days after inoculation
Method: (§1) The young plants of wheat are treated by spraying the active ingredient prepared as described above. Control plants are treated only with an aqueous solution of acetone/Dimethyl sulfoxide/Tween®. After 24 hours, the plants are contaminated by spraying the leaves with an aqueous suspension of Puccinia recondita spores.

[3] = system: Septoria tritici; assay: In vivo preventive test on Septoria tritici (leaf spot on wheat); conditions: wheat plants, preventive spray, evaluated 24 days after inoculation
Method: as §1, with “Septoria tritici” for “Puccinia recondita”

[4] = system: Sphaerotheca fuliginea; assay: In vivo preventive test on Sphaerotheca fuliginea (powdery mildew on cucurbits); conditions: gherkin plants, preventive spray, evaluated 15 days after inoculation
Method: as §1, with “gherkin” for “wheat”, “Sphaerotheca fuliginea” for “Puccinia recondita”

[5] = system: Uromyces appendiculatus; assay: In vivo preventive test on Uromyces appendiculatus (bean rust); conditions: bean plants, preventive spray, evaluated 11 days after inoculation
Method: as §1, with “bean” for “wheat”, “Uromyces appendiculatus” for “Puccinia recondita”

[6] = system: Blumeria graminis fsp. hordei; assay: Blumeria test (barley)/preventive; type: in vivo; conditions: 500 ppm of active ingredient, preventive, evaluated 7 days after inoculation
Method: (§2) Solvent: 49 parts by weight of N,N-dimethylacetamide Emulsifier: 1 part by weight of alkylaryl polyglycol ether To produce a suitable preparation of active compound, 1 part by weight of active compound or active compound combination is mixed with the stated amounts of solvent and emulsifier, and the concentrate is diluted with water to the desired concentration. To test for preventive activity, young plants are sprayed with the preparation of active compound or active compound combination at the stated rate of application. After the spray coating has been dried, the plants are dusted with spores of Blumeria graminis fsp. hordei. The plants are placed in the greenhouse at a temperature of approximately 18° C. and a relative atmospheric humidity of approximately 80% to promote the development of mildew pustules.

[7] = system: Fusarium culmorum; assay: Fusarium culmorum-test (wheat)/preventive; type: in vivo; conditions: 500 ppm of active ingredient, preventive, evaluated 5 days after inoculation
Method: Solvent: 49 parts by weight of N,N-dimethylacetamide
Emulsifier: 1 part by weight of alkylaryl polyglycol ether
To produce a suitable preparation of active compound, 1 part by weight of active compound or active compound combination is mixed with the stated amounts of solvent and emulsifier, and the concentrate is diluted with water to the desired concentration.
To test for preventive activity, young plants are sprayed with the preparation of active compound or active compound combination at the stated rate of application. After the spray coating has been dried, the plants are slightly injured by using a sandblast and afterwards they are sprayed with a conidia suspension of Fusarium culmorum.
The plants are placed in the greenhouse under a translucent incubation cabinet at a temperature of approximately 22° C. and a relative atmospheric humidity of approximately 100%.
The test is evaluated 5 days after the inoculation. 0% means an efficacy which corresponds to that of the untreated control, while an efficacy of 100% means that no disease is observed.

[8] = system: Fusarium graminearum; type: in vivo; conditions: 500 ppm of active ingredient; barley, preventive; evaluated 5 days after inoculation
[9] = system: Fusarium nivale (var. majus); assay: Fusarium nivale (var. majus)-test (wheat)/preventive; type: in vivo; conditions: 500 ppm of active ingredient, preventive, evaluated 5 days after inoculation
Method: as §2, with “slightly injured by using a sandblast and afterwards they are sprayed” for “dusted”, “a conidia suspension” for “spores”, “Fusarium nivale (var. majus).” for “Blumeria graminis fsp. hordei. The plants are placed in the greenhouse at a temperature of approximately 18° C. and a relative atmospheric humidity of approximately 80% to promote the development of mildew pustules.”

[10] = system: Leptosphaeria nodorum; assay: Leptosphaeria nodorum test (wheat)/preventive; type: in vivo; conditions: 500 ppm of active ingredient, preventive, evaluated 8 days after inoculation
Method: as §2, with “sprayed” for “dusted”, “a spore suspension” for “spores”, “Leptosphaeria nodorum. […]” for “Blumeria graminis fsp. hordei.”, “22°” for “18°”, “80%.” for “80% to promote the development of mildew pustules.”

[11] = system: Phakopsora pachyrhizi; assay: Phakopsora test (soybeans)/preventive; type: in vivo; conditions: preventive, evaluated 7 days after inoculation
[12] = system: Pyricularia oryzae; type: in vivo; conditions: 500 ppm of active ingredient; rice, preventive; evaluated 8 days after inoculation
[13] = system: Venturia inaequalis; assay: Venturia test (apples)/preventive; type: in vivo; conditions: 100 ppm of active ingredient, preventive, evaluated 10 days after inoculation
Method: Solvent: 24.5 parts by weight of acetone • 24.5 parts by weight of dimethylacetamide Emulsifier: 1 part by weight of alkylaryl polyglycol ether To produce a suitable preparation of active compound, 1 part by weight of active compound is mixed with the stated amounts of solvent and emulsifier, and the concentrate is diluted with water to the desired concentration. To test for preventive activity, young plants are sprayed with the preparation of active compound at the stated rate of application. […] The plants are then placed in a greenhouse at approximately 21° C. and a relative atmospheric humidity of approximately 90%.

[14] = system: Pyrenophora teres; assay: In vivo preventive test on Pyrenophora teres (net blotch on barley); conditions: barley plants, preventive spray, evaluated 14 days after inoculation
Method: as §1, with “barley” for “wheat”, “Pyrenophora teres” for “Puccinia recondita”

[15] = physchem; conditions: pH 2.7
[16] = system: Pyricularia oryzae; type: in vivo; conditions: 500 ppm of active ingredient; rice plants, preventive spray; evaluated 6 days after inoculation
[17] = system: Podosphaera leucotricha; assay: Podosphaera test (apples)/preventive; type: in vivo; conditions: 100 ppm of active ingredient, preventive, evaluated 10 days after inoculation
Method: Solvent: 24.5 parts by weight of acetone • 24.5 parts by weight of dimethylacetamide Emulsifier: 1 part by weight of alkylaryl polyglycol ether To produce a suitable preparation of active compound, 1 part by weight of active compound is mixed with the stated amounts of solvent and emulsifier, and the concentrate is diluted with water to the desired concentration. To test for preventive activity, young plants are sprayed with the preparation of active compound at the stated rate of application. After the spray coating has dried on, the plants are inoculated with an aqueous spore suspension of the causal agent of apple mildew (Podosphaera leucotricha). The plants are then placed in a greenhouse at approximately 23° C. and a relative atmospheric humidity of approximately 70%.

Structure (SMILES)	Eff. % ([1]; 100 ppm of active ingredient)	Eff. % ([2]; 100 ppm of active ingredient)	Eff. % ([3]; 100 ppm of active ingredient)	Eff. % ([4]; 100 ppm of active ingredient)	Eff. % ([5]; 100 ppm of active ingredient)	Eff. % [6]	Eff. % [7]	Eff. % [8]	Eff. % [9]	Eff. % [10]	Eff. % ([11]; 100 ppm of active ingredient)	Eff. % [12]	Eff. % [13]	LogP (pH 2.7)	Eff. % ([1]; 500 ppm of active ingredient)	Eff. % ([2]; 500 ppm of active ingredient)	Eff. % ([14]; 500 ppm of active ingredient)	Eff. % ([3]; 500 ppm of active ingredient)	Eff. % ([4]; 500 ppm of active ingredient)	Eff. % ([5]; 500 ppm of active ingredient)	other results
CC(C)(C)C(O)(Cc1ccncc1F)Cn1cncn1 (stereo not shown) [Example I-6]	100%	88%	98%	100%	100%	100%	100%	100%	100%	100%	99%	94%	96%	1.41^[a]							
CCC(C)(C)C(O)(Cc1ccncc1F)Cn1cncn1 (stereo not shown) [Example I-7]	97%	81%	81%	100%	100%	100%	100%	100%	100%	100%		89%									LogP (method [a]: LC-MS at pH 2.7, 0.1% formic acid in water / acetonitrile gradient): 1.73^[a]
CC(C)(C)C(O)(Cc1ccnc(Cl)c1F)Cn1cncn1 (stereo not shown) [Example I-27]						100%	100%	100%	100%	88%				2.16^[a]	100%	98%	97%	97%	100%	100%	Eff. % ([11]; 10 ppm of active ingredient): 75%
CC(C)(C)C1(Cc2ccncc2Cl)CO1 (stereo not shown) [XII-5, 4-[(2-tert-butyloxiran-2-yl)methyl]-3-chloropyridine]																					chromatographic logP [15]: 2.8
CC(C)(C)C(O)(Cc1cc(F)ncc1Cl)Cn1cncn1 (stereo not shown) [Example I-29]						100%	100%	100%	100%	100%		71%		2.39^[a]	100%	100%	93%	100%	100%	100%	Eff. % ([11]; 10 ppm of active ingredient): 78%
CC(C)(C)C(O)(Cc1ccncc1Cl)Cn1cncn1 (stereo not shown) [Example I-4, 1-(3-chloropyridin-4-yl)-3,3-dimethyl-2-(1H-1,2,4-triazol-1-ylmethyl)butan-2-ol]		88%		100%	100%	100%	93%	92%	100%	88%	99%		94%								Eff. % ([14]; 100 ppm of active ingredient): 83%; chromatographic logP ([15]; reversed phase HPLC columns): 1.74
CC(C)(C)C(O)(Cc1cccnc1Cl)Cn1cncn1 (stereo not shown) [Example I-3]						100%	100%	100%	100%	100%	100%	75%	100%	1.94	100%	97%		100%	100%	100%	Eff. % [16]: 88%; Eff. % [17]: 100%; LogP (pH 7.8): 1.90
OC(Cc1ccncc1Cl)(CC1CC1)Cn1cncn1 (stereo not shown) [Example I-30]						100%			100%	88%				1.43^[a]		94%	71%	100%	100%	100%	
CCC(C)(C)C(O)(Cc1ccncc1Cl)Cn1cncn1 (stereo not shown) [Example I-5]	89%	90%	97%	100%	100%	100%	100%	100%	100%	100%		93%		2.13^[a]							Eff. % ([14]; 100 ppm of active ingredient): 83%
CC(C)(C)C(=O)Cc1cccnc1Cl [Example V-4, 1-(2-chloropyridin-3-yl)-3,3-dimethylbutan-2-one]																					chromatographic logP [15]: 2.34
